Source: US10342777B2, “Caffeoylquinic acid-rich extract and preparation as well as use thereof” (Macau University of Science and Technology, priority 2015, dated 2019)

Columns and labels:
[1] = tested on: myocardial I/R injury in rat heart; assay: Myocardial infarct size by TTC staining after ischemia/reperfusion; assay type: in vivo; conditions: 5 mg/kg i.v. tail vein 1 min before reperfusion; positive control; vehicle 15.2±1.4%
Procedure: (§1) An ischemia reperfusion injury was produced in rat heart based on Buerke's description with our modifications (Buerke et al., Proc Natl Acad Sci USA, 1995, 92:8031-8035). Sixty rats were randomly divided into six groups (n=10 per group): (I) Sham group (given saline vehicle without I/R); (II) I/R group with saline alone; (Ill) I/R group with 10 mg/kg of the caffeoylquinic acid-rich extract of example 1; (IV) I/R group with 20 mg/kg of the caffeoylquinic acid-rich extract of example 1; (V) I/R group with 40 mg/kg of the caffeoylquinic acid-rich extract of example 1; […] The vehicle or drugs were administered 1 min before reperfusion via single bolus tail vein injection. […] Using a PowerLab (ADInstruments Pty Ltd., Castle Hill, Australia), mean aortic pressure (MAP) was recorded from the Millar catheter. Electrocardiogram (ECG) in lead II was also recorded through the needle electrodes attached to the limbs. The heart rate and ST-segment elevation were calculated off-line. […] The images of the slice were captured by a LEICA digital camera 480 and infarct area in each slice was measured by computed planimetry with an image analyzing program Image J1.26 (Wayne Rasband, National Institutes of Health, USA). Then the infarct area of each slice was determined by manual delineation of TTC-negative pale area of the image. […]

[2] = tested on: myocardial I/R injury in rat heart; assay: ECG (lead II) ST-segment depression and heart rate 24 h after I/R; assay type: in vivo; conditions: 5 mg/kg; 24 h reperfusion
Procedure: as §1, with “Electrocardiogram (ECG) in lead II was recorded through” for “The images of”, “needle electrodes attached to the limbs continuously for 15 min” for “slice were captured by a LEICA digital camera 480 and infarct area in each slice was measured by computed planimetry”, “electrocardiograph (ASB240U, […], China). The heart rate and ST-segment depression were calculated off-line. […] The amplitude” for “image analyzing program Image J1.26 (Wayne Rasband, National Institutes”, “ST-segment and heart rate were recorded and used as” for “Health, USA). Then”, “index” for “infarct area”, “ischemic electrocardiograph changes.” for “each slice was determined by manual delineation of TTC-negative pale area of the image.”

[3] = tested on: Creatine kinase-MB (CK-MB); assay: Serum CK-MB activity 24 h after I/R (commercial kit); assay type: in vivo, rat; conditions: 5 mg/kg, P<0.01
Procedure: (§2) An ischemia reperfusion injury was produced in rat heart based on Buerke's description with our modifications (Buerke et al., Proc Natl Acad Sci USA, 1995, 92:8031-8035). Sixty rats were randomly divided into six groups (n=10 per group): (I) Sham group (given saline vehicle without I/R); (II) I/R group with saline alone; (Ill) I/R group with 10 mg/kg of the caffeoylquinic acid-rich extract of example 1; (IV) I/R group with 20 mg/kg of the caffeoylquinic acid-rich extract of example 1; (V) I/R group with 40 mg/kg of the caffeoylquinic acid-rich extract of example 1; […] The vehicle or drugs were administered 1 min before reperfusion via single bolus tail vein injection. Rats were anesthetized with pentobarbital sodium (70 mg/kg body weight) by an i.p. injection of a mixture of 20% Dorminal (1 ml contains 200 mg pentobarbital sodium, Alfasan) and sterile saline at a ratio of 1:3 (VN). Using a PowerLab (ADInstruments Pty Ltd., Castle Hill, Australia), mean aortic pressure (MAP) was recorded from the Millar catheter. Electrocardiogram (ECG) in lead II was also recorded through the needle electrodes attached to the limbs. The heart rate and ST-segment elevation were calculated off-line. The chest was opened at the left fourth intercostal space. […] Activities of LDH and CK-MB were determined by using commercial assay kits according to manufacturer's instructions. […]

[4] = tested on: Lactate dehydrogenase (LDH); assay: Serum LDH activity 24 h after I/R (commercial kit); assay type: in vivo, rat; conditions: 5 mg/kg, P<0.01
Procedure: as §2

[5] = tested on: TNF-α; assay: Cardiac tissue TNF-α level by ELISA 24 h after I/R; assay type: in vivo, rat; conditions: 5 mg/kg
Procedure: (§3) An ischemia reperfusion injury was produced in rat heart based on Buerke's description with our modifications (Buerke et al., Proc Natl Acad Sci USA, 1995, 92:8031-8035). Sixty rats were randomly divided into six groups (n=10 per group): (I) Sham group (given saline vehicle without I/R); (II) I/R group with saline alone; (Ill) I/R group with 10 mg/kg of the caffeoylquinic acid-rich extract of example 1; (IV) I/R group with 20 mg/kg of the caffeoylquinic acid-rich extract of example 1; (V) I/R group with 40 mg/kg of the caffeoylquinic acid-rich extract of example 1; […] The vehicle or drugs were administered 1 min before reperfusion via single bolus tail vein injection. […] Using a PowerLab (ADInstruments Pty Ltd., Castle Hill, Australia), mean aortic pressure (MAP) was recorded from the Millar catheter. Electrocardiogram (ECG) in lead II was also recorded through the needle electrodes attached to the limbs. The heart rate and ST-segment elevation were calculated off-line. […] Levels of TNF-α and IL-6 were measured using ELISA kits for TNF-α (RayBiotech, Inc., Norcross Ga.) and IL-6 (R & D System). […] The contents of total protein in the supernatants were determined by using a Bio-Rad kit (Bio-Rad Laboratories, Hercules, Calif., USA). […] To determine the effect of a caffeoylquinic acid-rich extract on pro-inflammatory cytokines, cardiac tissue levels of TNF-α and IL-6 after I/R were evaluated.

[6] = tested on: IL-6; assay: Cardiac tissue IL-6 level by ELISA 24 h after I/R; assay type: in vivo, rat; conditions: 5 mg/kg
Procedure: as §3

[7] = tested on: JNK; assay: Western blot of phospho-JNK in left ventricular tissue after I/R; assay type: in vivo, rat; conditions: 5 mg/kg before reperfusion

SMILES: O=C(/C=C/c1ccc(O)c(O)c1)OCCc1ccccc1 [CAPE, 2-phenylethyl (2E)-3-(3,4-dihydroxyphenyl)acrylate]
- myocardial infarct size [1]: 7.9±0.9%
- I/R-induced ST-segment depression [2]: significant protective effects
- heart rate decrease after I/R [2]: slight effect without significant difference
- serum CK-MB [3]: 913±40.2 U/L
- serum LDH [4]: 287±18.8 U/L
- cardiac tissue level of TNF-α [5]: markedly decreased
- cardiac tissue level of IL-6 [6]: markedly decreased
- JNK phosphorylation [7]: markedly reduced
